Patent publication US9738641B2, “Bicyclic inhibitors” (Kalvista Pharmaceuticals Limited, priority 2013, dated 2017)

Tests used:
[1] = system: retinal vascular permeability and retinal blood flow; settings: diabetic rats; cited from earlier work
[2] = in vivo; cited from earlier work
Human plasma kallikrein = Human plasma kallikrein (Homo sapiens (Human), UniProt P03952); assay: Determination of the IC50 for plasma kallikrein (fluorogenic substrate H-DPro-Phe-Arg-AFC); format: biochemical; settings: 37° C., read-out: IC50 (human PKal)
Experimental: Determination of the IC50 for Plasma Kallikrein
(§1) Plasma kallikrein inhibitory activity in vitro was determined using standard published methods (see e.g. Johansen et al., Int. J. Tiss. Reac. 1986, 8, 185; Shori et al., Biochem. Pharmacol., 1992, 43, 1209; Stürzebecher et al., Biol. Chem. Hoppe-Seyler, 1992, 373, 1025). Human plasma kallikrein (Protogen) was incubated at 37° C. with the fluorogenic substrate H-DPro-Phe-Arg-AFC and various concentrations of the test compound. Residual enzyme activity (initial rate of reaction) was determined by measuring the change in optical absorbance at 410 nm and the IC50 value for the test compound was determined.

Human KLK1 = Human KLK1 (Homo sapiens (Human), UniProt P06870); assay: Determination of the IC50 for KLK1 (fluorogenic substrate H-DVal-Leu-Arg-AFC); format: biochemical; settings: 37° C.
Experimental: Determination of the IC50 for KLK1
as §1, with “KLK1” for “Plasma kallikrein”, “KLK1 (Callbiochem)” for “plasma kallikrein (Protogen)”, “H-DVal-Leu-Arg-AFC” for “H-DPro-Phe-Arg-AFC”

Chain of Human plasma kallikrein (P03952 391-638): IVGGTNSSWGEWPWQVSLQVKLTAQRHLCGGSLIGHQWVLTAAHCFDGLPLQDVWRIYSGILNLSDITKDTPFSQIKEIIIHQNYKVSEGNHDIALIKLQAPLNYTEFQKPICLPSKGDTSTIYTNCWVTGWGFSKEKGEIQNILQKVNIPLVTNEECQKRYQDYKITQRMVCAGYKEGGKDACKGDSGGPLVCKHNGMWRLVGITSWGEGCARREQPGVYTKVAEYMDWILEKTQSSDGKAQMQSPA
Chain of Human plasma kallikrein (P03952 20-390 partner): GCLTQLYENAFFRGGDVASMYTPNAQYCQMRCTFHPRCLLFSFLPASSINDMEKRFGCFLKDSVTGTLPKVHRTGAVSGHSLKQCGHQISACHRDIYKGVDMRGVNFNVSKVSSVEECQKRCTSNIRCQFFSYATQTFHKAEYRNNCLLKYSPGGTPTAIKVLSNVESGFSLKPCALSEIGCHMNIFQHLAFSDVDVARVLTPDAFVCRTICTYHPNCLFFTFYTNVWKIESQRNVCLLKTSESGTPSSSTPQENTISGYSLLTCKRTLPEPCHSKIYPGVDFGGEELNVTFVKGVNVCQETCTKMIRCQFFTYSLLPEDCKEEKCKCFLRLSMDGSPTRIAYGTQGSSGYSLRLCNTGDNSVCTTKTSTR
Chain of Human KLK1 (P06870 25-262): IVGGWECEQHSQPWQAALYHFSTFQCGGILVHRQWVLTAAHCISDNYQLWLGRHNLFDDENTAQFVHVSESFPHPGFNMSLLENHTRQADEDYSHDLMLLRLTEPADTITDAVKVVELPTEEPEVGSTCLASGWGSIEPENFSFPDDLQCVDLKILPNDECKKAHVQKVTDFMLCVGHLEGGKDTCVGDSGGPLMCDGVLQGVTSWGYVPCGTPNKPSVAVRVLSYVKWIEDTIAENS

SMILES: N=C(N)c1ccc(CNC(=O)c2cnn(Cc3ccccc3)c2)cc1 [ASP-440]
- effect on retinal vascular permeability and retinal blood flow abnormalities [1]: ameliorated both retinal vascular permeability and retinal blood flow abnormalities
- oral availability [2]: poor oral availability

SMILES: O=c1ccccn1Cc1ccc(Cn2ccc3c(NCc4cnc5[nH]ccc5c4)nccc32)cc1 [Example 3, 1-(4-{4-[(1H-Pyrrolo[2,3-b]pyridin-5-ylmethyl)-amino]-pyrrolo[3,2-c]pyridin-1-ylmethyl}-benzyl)-1H-pyridin-2-one]
- IC50 (Human plasma kallikrein): 5.46 µM
- IC50 (Human KLK1): 5.69 µM

SMILES: c1ccc(-c2nc(Cn3ccc4c(NCc5cnc6[nH]ccc6c5)nccc43)cs2)cc1 [Example 4, [1-(2-Phenyl-thiazol-4-ylmethyl)-1H-pyrrolo[3,2-c]pyridin-4-yl]-(1H-pyrrolo[2,3-b]pyridin-5-ylmethyl)-amine]
- IC50 (Human plasma kallikrein): 5.32 µM
- IC50 (Human KLK1): 10.3 µM

SMILES: NCc1ccc(CNc2nccc3c2ccn3CCCCc2ccccc2)cc1 [Example 5, (4-Aminomethyl-benzyl)-[1-(4-phenyl-butyl)-1H-pyrrolo[3,2-c]pyridin-4-yl]-amine]
- IC50 (Human plasma kallikrein): 29 µM
- IC50 (Human KLK1): 38.6 µM

SMILES: Cc1cc(CN)ccc1CNc1nccc2c1ccn2Cc1csc(-c2ccccc2)n1 [Example 6, (4-Aminomethyl-2-methyl-benzyl)-[1-(2-phenyl-thiazol-4-ylmethyl)-1H-pyrrolo[3,2-c]pyridin-4-yl]-amine]
- IC50 (Human plasma kallikrein): 8.59 µM
- IC50 (Human KLK1): 8.14 µM

SMILES: NCc1ccc(CNc2nccc3c2ccn3Cc2ccc(Cn3ccccc3=O)cc2)cc1 [Example 7, 1-{4-[4-(4-Aminomethyl-benzylamino)-pyrrolo[3,2-c]pyridin-1-ylmethyl]-benzyl}-1H-pyridin-2-one]
- IC50 (Human plasma kallikrein): 5.37 µM
- IC50 (Human KLK1): 29.9 µM

SMILES: Cc1cc(CN)ccc1CNc1nccc2c1ccn2Cc1ccc(Cn2ccccc2=O)cc1 [Example 8, 1-{4-[4-(4-Aminomethyl-2-methyl-benzylamino)-pyrrolo[3,2-c]pyridin-1-ylmethyl]-benzyl}-1H-pyridin-2-one]
- IC50 (Human plasma kallikrein): 6.3 µM
- IC50 (Human KLK1): 5.3 µM

SMILES: NCc1ccc(CNc2nccc3c2ccn3Cc2csc(-c3ccccc3)n2)cc1 [Example 9, (4-Aminomethyl-benzyl)-[1-(2-phenyl-thiazol-4-ylmethyl)-1H-pyrrolo[3,2-c]pyridin-4-yl]-amine]
- IC50 (Human plasma kallikrein): 8.1 µM
- IC50 (Human KLK1): 8.26 µM

SMILES: Cc1cnn(Cc2ccc(CN3CCOc4c(NCc5ccc6c(N)nccc6c5)ncnc43)cc2)c1 [Example 10, (1-Amino-isoquinolin-6-ylmethyl)-{8-[4-(4-methyl-pyrazol-1-ylmethyl)-benzyl]-7,8-dihydro-6H-pyrimido[5,4-b][1,4]oxazin-4-yl}-amine]
- IC50 (Human plasma kallikrein): 20.5 µM
- IC50 (Human KLK1): 5.04 µM
